The results in this text go back to PubChem BioAssay AID264 (DTP/NCI, 2004).

Where “and” joins values, the source holds several entries; their conditions need not be identical. Equal entries are not always repeated. Records with an inconclusive call do not appear.

This assay concerns nude mice, LX-1 lung xenograft intrarenal, tumor weight T/C. Description: NCI In Vivo Anticancer Drug Screen. Data for tumor model Human Lung LX-1 Xenograft (intrarenal inoculation) in NU/NU Swiss (nude) mice. As to conditions: endpoint: mean tumor weight change, higher = larger tumour. A digest of the protocol: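 Tumor-bearing mice receive test compound or vehicle; tumor size is then measured in each group. The treated value is divided by the vehicle value to give T/C.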
Background: A xenograft is tissue or cells of one species grown in another, often human tumour cells in immunodeficient mice.

The mark [1] stands for this setting: dose: 100.0 mg/kg/injection, schedule: Q04DX003 (sc), vehicle: Klucel (hydroxypropylcellulose) (HPC).
The mark [2] stands for this setting: dose: 200.0 mg/kg/injection, schedule: Q04DX003 (sc), vehicle: Klucel (hydroxypropylcellulose) (HPC).
[3] abbreviates: dose: 400.0 mg/kg/injection, schedule: Q04DX003 (sc), vehicle: Klucel (hydroxypropylcellulose) (HPC).
Where [4] appears, read: dose: 37.5 mg/kg/injection, schedule: Q04DX003 (sc), vehicle: saline with Tween-80.
Where [5] appears, read: dose: 75.0 mg/kg/injection, schedule: Q04DX003 (sc), vehicle: saline with Tween-80.
Setting [6] is: dose: 150.0 mg/kg/injection, schedule: Q04DX003 (sc), vehicle: saline with Tween-80.
Where [7] appears, read: dose: 150.0 mg/kg/injection, schedule: Q04DX003 (sc), vehicle: saline.
[8] abbreviates: dose: 600.0 mg/kg/injection, schedule: Q04DX003 (sc), vehicle: saline.

Consider `CC(C)CC(=O)NC(C(=O)NC(C(=O)NC(CC(C)C)C(O)CC(=O)NC(C)C(=O)NC(CC(C)C)C(O)CC(=O)O)C(C)C)C(C)C` (stereo unspecified), for which the T/C was 70 % of control (dose: 150.0 mg/kg/injection, schedule: Q04DX003 (sc), vehicle: Klucel (hydroxypropylcellulose) (HPC)); 93 % of control (dose: 300.0 mg/kg/injection, schedule: Q04DX003 (sc), vehicle: Klucel (hydroxypropylcellulose) (HPC)); 66 % of control (dose: 600.0 mg/kg/injection, schedule: Q04DX003 (sc), vehicle: Klucel (hydroxypropylcellulose) (HPC)); 51 % of control (dose: 1200.0 mg/kg/injection, schedule: Q04DX003 (sc), vehicle: Klucel (hydroxypropylcellulose) (HPC)).
`CC(=O)OC1C(O)C(C)OC(OC2C(OC(=O)C3CCC4C(C3)OC3(CC(OC(=O)/C=C/c5ccccc5)C(C)CO3)C43CO3)OC(C)C(O)C2OC(C)=O)C1O` (stereo unspecified): the T/C reads like this: (dose: 15.0 mg/kg/injection, schedule: Q04DX003 (sc), vehicle: distilled water + Tween-80) 114 % of control; (dose: 30.0 mg/kg/injection, schedule: Q04DX003 (sc), vehicle: distilled water + Tween-80) 121 % of control; (dose: 60.0 mg/kg/injection, schedule: Q04DX003 (sc), vehicle: distilled water + Tween-80) 162 % of control.
As to `COc1ccc2c(c1)CCC(c1ccccc1)=C2c1ccc(OCCN2CCCC2)cc1`, the T/C by setting is: under setting [1], 116 % of control; under setting [2], 85 % of control; under setting [3], 57 % of control; (dose: 800.0 mg/kg/injection, schedule: Q04DX003 (sc), vehicle: Klucel (hydroxypropylcellulose) (HPC)) 101 % of control.
Take `CCOC(=O)C(CC(C)C)NC(=O)C(Cc1ccc(N(CCCl)CCCl)cc1)NC(C)=O` (stereo unspecified): the T/C (dose: 12.5 mg/kg/injection, schedule: Q01DX010 (sc), vehicle: saline with Tween-80) is 51 % of control; the T/C (dose: 25.0 mg/kg/injection, schedule: Q01DX010 (sc), vehicle: saline with Tween-80) was 37 % of control; the T/C (dose: 50.0 mg/kg/injection, schedule: Q01DX010 (sc), vehicle: saline with Tween-80) is 28 % of control.
Consider `CCC[P+](c1ccccc1)(c1ccccc1)c1ccccc1`, for which the T/C was 83 % of control under setting [4], 79 % of control under setting [5] and 79 % of control under setting [6].
For `CCOC(=O)Nc1cc2c(c(N)n1)N=C(c1ccccc1)CN2`, the T/C (dose: 3.12 mg/kg/injection, schedule: Q04DX003 (sc), vehicle: saline with Tween-80) was 68 % of control; the T/C (dose: 6.25 mg/kg/injection, schedule: Q04DX003 (sc), vehicle: saline with Tween-80) is 82 % of control and 96 % of control; the T/C (dose: 12.5 mg/kg/injection, schedule: Q04DX003 (sc), vehicle: saline with Tween-80) was 73 % of control; the T/C (dose: 25.0 mg/kg/injection, schedule: Q04DX003 (sc), vehicle: saline with Tween-80) is 30 % of control and 54 % of control.
Turning to `CC[PH+](CC)CC[S-].CC[PH+](CC)CC[S-].[Au+].[Au+]`, the T/C is, setting by setting: (dose: 40.0 mg/kg/injection, schedule: Q04DX003 (sc), vehicle: Klucel (hydroxypropylcellulose) (HPC)) 105 % of control; (dose: 160.0 mg/kg/injection, schedule: Q04DX003 (sc), vehicle: Klucel (hydroxypropylcellulose) (HPC)) 105 % of control; (dose: 320.0 mg/kg/injection, schedule: Q04DX003 (sc), vehicle: Klucel (hydroxypropylcellulose) (HPC)) 96 % of control.
With `CC(=O)OCC1OC(OC(C)=O)C(NC(=O)N(CCCl)N=O)C(OC(C)=O)C1OC(C)=O` (stereo unspecified), the T/C runs as follows: (dose: 12.0 mg/kg/injection, schedule: Q04DX003 (sc), vehicle: Klucel (hydroxypropylcellulose) (HPC)) 36 % of control; (dose: 24.0 mg/kg/injection, schedule: Q04DX003 (sc), vehicle: Klucel (hydroxypropylcellulose) (HPC)) 25 % of control.
As to `CC(C)[C@](O)(C(=O)OCC1=CC[N+]2([O-])CC[C@@H](O)[C@@H]12)[C@H](C)O` (stereo partly specified), the T/C runs as follows: (dose: 50.0 mg/kg/injection, schedule: Q01DX010 (sc), vehicle: water) 59 % of control; (dose: 100.0 mg/kg/injection, schedule: Q01DX010 (sc), vehicle: water) 44 % of control; (dose: 200.0 mg/kg/injection, schedule: Q01DX010 (sc), vehicle: water) 58 % of control; (dose: 400.0 mg/kg/injection, schedule: Q01DX010 (sc), vehicle: water) 36 % of control.
In the case of `N=[N+]=CC(=O)CCC(NC(=O)C(CCC(=O)C=[N+]=N)NC(=O)CCC(N)C(=O)O)C(=O)O` (stereo unspecified), the T/C is, setting by setting: (dose: 1.6 mg/kg/injection, schedule: Q04DX003 (sc), vehicle: water) 119 % of control; (dose: 3.2 mg/kg/injection, schedule: Q04DX003 (sc), vehicle: water) 86 % of control; (dose: 6.4 mg/kg/injection, schedule: Q04DX003 (sc), vehicle: water) 119 % of control; (dose: 12.8 mg/kg/injection, schedule: Q04DX003 (sc), vehicle: water) 91 % of control.
Take `O=CC(=O)c1ccc(O)cc1`: the T/C reads like this: under setting [7], 51 % of control; (dose: 300.0 mg/kg/injection, schedule: Q04DX003 (sc), vehicle: saline) 49 % of control; under setting [8], 58 % of control.
With `[N-]=[N+]=CC(=O)CCC(N)C(=O)O` (stereo unspecified), the T/C was 91 % of control (dose: 0.05 mg/kg/injection, schedule: Q01DX010 (sc), vehicle: saline); 12 % of control (dose: 0.37 mg/kg/injection, schedule: Q01DX010 (sc), vehicle: saline); -28 % of control (dose: 0.75 mg/kg/injection, schedule: Q01DX010 (sc), vehicle: saline).
With `CC[C@@]1(O)C(=O)OCc2c1cc1n(c2=O)Cc2cc3cc(O)ccc3nc2-1`, under “dose: 32.0 mg/kg/injection, schedule: Q04DX003 (sc), vehicle: suspension in saline”, the T/C was 12 % of control and 14 % of control.
As for `COc1ccc2c(c1)CCn1c(C)c(COC(=O)NC(C)C)c(COC(=O)NC(C)C)c1-2`, the T/C runs as follows: (dose: 37.5 mg/kg/injection, schedule: Q04DX003 (sc), vehicle: distilled water + Tween-80) 65 % of control; (dose: 75.0 mg/kg/injection, schedule: Q04DX003 (sc), vehicle: distilled water + Tween-80) 64 % of control; (dose: 150.0 mg/kg/injection, schedule: Q04DX003 (sc), vehicle: distilled water + Tween-80) 55 % of control; (dose: 300.0 mg/kg/injection, schedule: Q04DX003 (sc), vehicle: distilled water + Tween-80) 63 % of control.
As to `O=[N+]([O-])c1ccc(-n2[nH]nnc2=S)cc1`, the T/C is, setting by setting: (dose: 50.0 mg/kg/injection, schedule: Q04DX003 (sc), vehicle: Klucel (hydroxypropylcellulose) (HPC)) 92 % of control; under setting [1], 84 % of control; under setting [2], 95 % of control; under setting [3], 59 % of control.
Regarding `Clc1cc(Cl)c(C[N+]23CN4CN(CN(C4)C2)C3)cc1Cl`, the T/C (dose: 18.75 mg/kg/injection, schedule: Q04DX003 (sc), vehicle: saline with Tween-80) was 76 % of control; the T/C under setting [4] is 96 % of control; the T/C under setting [5] was 91 % of control; the T/C under setting [6] was 107 % of control.
For the compound `O=c1[nH]c(=O)n(C2CC(O)C(CO)O2)cc1C(F)(F)F` (stereo unspecified), the T/C is 91 % of control (dose: 50.0 mg/kg/injection, schedule: Q01DX010 (sc), vehicle: saline); 100 % of control (dose: 100.0 mg/kg/injection, schedule: Q01DX010 (sc), vehicle: saline); 51 % of control (dose: 200.0 mg/kg/injection, schedule: Q01DX010 (sc), vehicle: saline); 30 % of control (dose: 400.0 mg/kg/injection, schedule: Q01DX010 (sc), vehicle: saline).
Consider `Cc1cn(C2CC3[O][Sn]([c]4ccccc4)([c]4ccccc4)[O]CC3O2)c(=O)[nH]c1=O` (stereo unspecified), for which the T/C was 107 % of control under setting [8] and 47 % of control (dose: 2400.0 mg/kg/injection, schedule: Q04DX003 (sc), vehicle: saline).
Take `[Cl][Mn][Cl]`: the T/C was 68 % of control (dose: 75.0 mg/kg/injection, schedule: Q04DX003 (sc), vehicle: saline) and 50 % of control under setting [7].
